What was measured:
[1] = tested on: streptozotocin-induced diabetic rats; assay: Anti-hyperglycemic activity of bitter melon extracts in streptozotocin-induced diabetic rats (blood glucose); format: in vivo, Wistar Albino male rats; conditions: extracts 250 mg/kg, metformin 150 mg/kg
Description: (§1) This and related experiments subsequently were published (Clouatre et al., 2011.) Wistar Albino male rats 12 weeks of age were obtained from St John's Pharmacy College Animal House, India and handled according to institutional practices. […] All rats were fed a standard rat chow diet ad libitum from Sai Durga Feed, Bangalore; water also was supplied ad libitum. Following 7 days acclimatization, one half of the rats were fasted for 24 hours and then injected with freshly prepared STZ in citrate buffer [[…]] (45 mg/kg, i.p). After one week, rats with marked hyperglycemia (fasting blood glucose >300 mg/dL) were used as the diabetic rats.
(§2) Extracts 1-4 were produced and preserved via different methods attempting to retain efficacies reported for macerated fresh fruit preparations. EX-1 was a vacuum-dried powder of the macerated extract of fresh fruit (˜25:1). EX-2 was a freeze-dried powder of the macerated extract of fresh fruit (˜25:1). EX-3 was a spray-dried powder of the macerated extract of fresh fruit (˜25:1). EX-4 was a vacuum-dried powder of the macerated extract of fresh fruit adsorbed onto powdered vacuum-dried fresh fruit (˜15:1). Dosages of the extracts (mg/kg bodyweight/day) were 50 and 250 mg/kg as indicated. After an overnight fast, the extract samples suspended in 5% gum acacia were administered to the animals by gastric intubations with a syringe.
(§3) For test purposes, glucose was given orally by intubation as a 40% solution (1 g/kg body wt). Blood samples following the glucose challenge were collected for the measurement of blood glucose from the tail vein at 0, 1, 2, 3 and 4 hrs. The blood glucose level was determined by using an electronic glucometer (Accu Check, Roche Diagnostic).
Next, the anti-hyperglycemic activity of bitter melon extracts was studied in streptozotocin-induced diabetic rats described above.

Normal Rats = assay: Hypoglycemic activity of bitter melon extracts in normal rats (blood glucose after oral glucose challenge); format: in vivo, Wistar Albino male rats; conditions: for hypoglycemia in normal animals (glucose <70 mg/dL in this model): 50 mg/kg
Description: as §1, §2, §3
First, the hypoglycemic activity of bitter melon extracts was studied in normal rats.

CN(C)C(=N)N=C(N)N [Metformin, metformin]
reduced blood glucose, percent ([1]; diabetic animals, at 4 hours): 53.52 percent (mg %)
Blood Glucose Level, Treatment +1 hr ([1]; diabetic rats, +1 hr): 271.6 ± 4.0 mg %
Blood Glucose Level, Treatment +2 hr ([1]; diabetic rats, +2 hr): 214.4 ± 3.2 mg %
percent reduction of blood sugar level compared with initial level of blood glucose (0 h) ([1]; diabetic rats, +2 hr): (34.9) percent
Blood Glucose Level, Treatment +3 hr ([1]; diabetic rats, +3 hr): 176.0 ± 6.7 mg %
percent reduction of blood sugar level compared with initial level of blood glucose (0 h) ([1]; diabetic rats, +3 hr): (46.4) percent
Blood Glucose Level, Treatment +4 hr ([1]; diabetic rats, +4 hr): 153.0 ± 3.3 mg %
percent reduction of blood sugar level compared with initial level of blood glucose (0 h) ([1]; diabetic rats, +4 hr): (53.5) percent
Blood Glucose Level, Initial (0 hr) ([1]; diabetic rats, initial value 0 hr): 329.2 ± 5.3 mg %
hypoglycemia in normal animals (glucose <70 mg/dL in this model) (Normal Rats): resulted in hypoglycemia
Blood Glucose Level, Treatment +1 hr (Normal Rats; 50 mg/kg oral, +1 hr): 85.5 ± 1.8 mg %
Blood Glucose Level, Treatment +2 hr (Normal Rats; 50 mg/kg oral, +2 hr): 73.5 ± 1.2 mg %
percent reduction in blood sugar level compared with initial glucose value (0 h) (Normal Rats; 50 mg/kg oral, +2 hr): (34.9) percent
Blood Glucose Level, Treatment +3 hr (Normal Rats; 50 mg/kg oral, +3 hr): 66.5 ± 1.2 mg %
percent reduction in blood sugar level compared with initial glucose value (0 h) (Normal Rats; 50 mg/kg oral, +3 hr): (46.4) percent
Blood Glucose Level, Treatment +4 hr (Normal Rats; 50 mg/kg oral, +4 hr): 52.5 ± 0.7 mg %
percent reduction in blood sugar level compared with initial glucose value (0 h) (Normal Rats; 50 mg/kg oral, +4 hr): (53.5) percent
Blood Glucose Level, Initial (0 hr) (Normal Rats; 50 mg/kg oral, initial value 0 hr): 93.3 ± 1.3 mg %
hypoglycemia in normal animals (glucose <70 mg/dL in this model) (Normal Rats; listed as metformin): led to hypoglycemia
